Source: patent US8895585B2, “Nicotinamide derivative or salt thereof” (FUJIFILM Corporation, priority 2010, dated 2014)

Tested on: THP-1 cells
Assay: TNFα generation assay
Format: cell-based, human
Conditions: Homo sapiens, THP-1, 7 h, IFN-γ-differentiated THP-1 cells on human IgG-coated plate, cultured 7 hours; read-out: TNFα generation inhibitory activity (IC50)
Method: THP-1 cells (2×10^5 cells/ml), which were human monocytoid cells, were cultured in the presence of 10 ng/ml IFN-γ (Roche) for 2 days, so that the cells were induced to differentiate into macrophage-like cells. The differentiation-induced THP-1 cells were recovered, and the cells (1×10^6 cell/ml) were then allowed to react with a predetermined concentration of test compound at room temperature for 30 minutes. On the other hand, 100 μl of human IgG (10 μg/ml, SIGMA-ALDRICH) diluted with PBS was added to a 96-well plate, and it was then incubated at room temperature overnight. Thereafter, the resultant was washed with PBS twice to produce a human IgG-coated plate. Subsequently, a cell solution that contained a compound was inoculated on the human IgG-coated plate (5×10^4 cells/well), and it was then cultured for 7 hours. Thereafter, the cultured solution was recovered, and the amount of TNFα secreted into the culture solution was then measured by the ELISA method (Roche/R & D Systems) or the AlphaLISA method (PerkinElmer).

Q: How did the IC50 turn out when `Cc1cccc(Nc2nc(N[C@@H]3CCCC[C@@H]3N)c(F)cc2C(N)=O)c1` (relative stereo) [Example 2-3, 6-(cis-2-aminocyclohexylamino)-5-fluoro-2-((3-methyl-phenyl)amino)nicotinamide] was run?
A: Its IC50 is ≤ 0.2 µM.

Q: How did the IC50 turn out when `Cc1cncc(Nc2nc(N[C@@H]3CCCC[C@@H]3N)c(Br)cc2C(N)=O)c1` (relative stereo) [Example 35-7, 6-(cis-2-aminocyclohexylamino)-5-bromo-2-((5-methylpyridin-3-yl)amino)nicotinamide] was run?
A: Its IC50 is ≤ 0.2 µM.

Q: `NC(=O)c1cc(F)c(N[C@@H]2CCCC[C@@H]2N)nc1Nc1ccc2cccnc2c1` (relative stereo) [Example 6-72, 6-(cis-2-aminocyclohexylamino)-5-fluoro-2-(quinolin-7-ylamino)nicotinamide] was tested. Which IC50 did it give?
A: Its IC50 is ≤ 0.2 µM.

Q: `NC(=O)c1cc(F)c(N[C@@H]2CCCC[C@@H]2N)nc1Nc1cnc2c(ccn2CCN2CCCC2)c1` (relative stereo) [Example 4-22, 6-(cis-2-aminocyclohexylamino)-5-fluoro-2-((1-(2-(pyrrolidin-1-yl)ethyl)-1H-pyrrolo[2,3-b]pyridin-5-yl)amino)nicotinamide] was tested. Which IC50 did it give?
A: The IC50 was ≤ 0.2 µM.

Q: How did the IC50 turn out when `NC(=O)c1cc(F)c(N[C@@H]2CCCC[C@@H]2N)nc1Nc1ccc(N2CCOCC2)cc1` (relative stereo) [Example 2-5, 6-(cis-2-aminocyclohexylamino)-5-fluoro-2-((4-(morpholin-4-yl)phenyl)amino)nicotinamide] was run?
A: The IC50 was ≤ 0.2 µM.

Q: Which IC50 does the source give for `COc1cc(Nc2nc(N[C@@H]3CCCC[C@@H]3N)c(F)cc2C(N)=O)cc(OC)c1OC` (relative stereo) [Example 2-7, 6-(cis-2-aminocyclohexylamino)-5-fluoro-2-((3,4,5-trimethoxy-phenyl)amino)nicotinamide] here?
A: The IC50 was ≤ 0.2 µM.

Q: For `Cn1ncc2c(Nc3nc(N[C@@H]4CCCC[C@@H]4N)c(F)cc3C(N)=O)cccc21` (relative stereo) [Example 6-75, 6-(cis-2-aminocyclohexylamino)-5-fluoro-2-((1-methyl-1H-indazol-4-yl)amino)nicotinamide], which IC50 is on record?
A: Its IC50 is ≤ 0.2 µM.

Q: Which IC50 does the source give for `NC(=O)c1cc(F)c(N[C@@H]2CCCC[C@@H]2N)nc1Nc1ccc(N2CCOCC2)nc1` (relative stereo) [Example 2-20, 6-(cis-2-aminocyclohexylamino)-5-fluoro-2-((6-(morpholin-4-yl)pyridin-3-yl)amino)nicotinamide] here?
A: The IC50 was ≤ 0.2 µM.

Q: Which IC50 does the source give for `Cc1nc2cc(Nc3nc(N[C@@H]4CCCC[C@@H]4N)c(F)cc3C(N)=O)ccc2o1` (relative stereo) [Example 6-46, 6-(cis-2-aminocyclohexylamino)-5-fluoro-2-((2-methylbenzo[d]oxazol-5-yl)amino)nicotinamide] here?
A: The IC50 was ≤ 0.2 µM.

Q: `CC[C@@H](Nc1nc(Nc2ccc3ncccc3c2)c(C(N)=O)cc1F)C(N)=O` [Example 12-31, 6-(((2R)-1-amino-1-oxobutan-2-yl)amino)-5-fluoro-2-(quinolin-6-ylamino)nicotinamide] was tested. Which IC50 did it give?
A: The IC50 was ≤ 0.2 µM.

Q: For `NC(=O)c1cc(F)c(N[C@@H]2CCCC[C@@H]2N)nc1Nc1ccnc2c1ccn2CCN1CCCC1` (relative stereo) [Example 4-23, 6-(cis-2-aminocyclohexylamino)-5-fluoro-2-((1-(2-(pyrrolidin-1-yl)ethyl)-1H-pyrrolo[2,3-b]pyridin-4-yl)amino)nicotinamide], which IC50 is on record?
A: Its IC50 is ≤ 0.2 µM.

Q: For `NC(=O)c1cc(F)c(N[C@@H]2CCCC[C@@H]2N)nc1Nc1cncc(-n2nccn2)c1` (relative stereo) [Example 4-42, 6-(cis-2-aminocyclohexylamino)-5-fluoro-2-((5-(2H-1,2,3-triazol-2-yl)pyridin-3-yl)amino)nicotinamide], which IC50 is on record?
A: Its IC50 is ≤ 0.2 µM.

Same assay, conditions: Homo sapiens, THP-1, THP-1 cells; Table 22; read-out: IC50 in TNFα generation assay

Q: For `Cc1nc2ccc(Nc3nc(N[C@@H]4CCCC[C@@H]4N)c(F)cc3C(N)=O)cc2o1` (relative stereo) [Example 006-043, 6-(cis-2-aminocyclohexylamino)-5-fluoro-2-((2-methylbenzo[d]oxazol-6-yl)amino)nicotinamide], which IC50 is on record?
A: Its IC50 is 0.13 to 0.2 µM.
